# Assay results from PMC11220654, “A Frog Skin‐Derived Peptide Targeting SCD1 Exerts Radioprotective Effects Against Skin Injury by Inhibiting STING‐Mediated Inflammation” (Advanced Science, 2024).
# Residues, ends and D or L forms follow the SMILES beside them. No end group written: not given here. *: point of attachment. Cbz = O=C(OCc1ccccc1)*
# Columns and labels:
# [1] = system: TBK1 in HaCaT cells; test: TBK1 protein level and ubiquitination (Western blotting, IP); type: cell-based, human
# Text: Here, we further explored whether and how RIFSP‐2 decreased the protein level of TBK1 in HaCaT cells. […] Since the degradation of TBK1 protein was reported to be regulated by either ubiquitination mediated proteasome pathway^[ [33] ^] or chaperone‐mediated autophagy signaling,^[ [34] ^] we testified the influence of the protein synthesis inhibitor (CHX) and the proteasome inhibitor (MG132) in RIFSP‐2 treated HaCaT cells. […] Then we analyzed the colocalization of TBK1 and lysosomes through confocal immunofluorescence microscopy assays. Although, administration of RIFSP‐2 induced a transient decrease of TBK1 fluorescence intensity (Figure S5K,L, Supporting Information), the co‐localization assays didn't support the increase of TBK1 location in lysosomes in RIFSP‐2 treated HaCaT cells (Figure S5M, Supporting Information).
# Fig. S5 Influence of RIFSP-2 on STING activation and TBK1 expression in HaCaT […]
# Communities classified based on the association network of the different metabolites in irradiated cells treated with or without RIFSP -2. (B) Structural character analysis of the lipid metabolites in irradiated cells treated with or without RIFSP -2. (C) Dose dependent induction of phosphorylation of STING and downstream TBK1 detected through western blotting. […] (M) Pearson correlation coefficient was calculated through Image J to explore the colocalization between TBK1 and […]
# [2] = system: WS1 cells; test: Intracellular uptake of FITC-labeled peptides (confocal microscopy, flow cytometry); type: cell-based
# Text: (§1) Distinct from previous reports, the RIFSPs were obtained from skin tissue crude extracts but not from skin secretions. In addition, the administration of exogenous RIFSPs protected cultured skin cells, which hints that some RIFSPs may exert membrane permeability. Therefore, we synthesized FITC‐labeled RIFSPs‐2/5/9/10 and evaluated their possible intracellular uptake by skin cells. […] Glycosaminoglycans have been reported to affect the efficiency of cellular uptake of a wide range of cell penetrating peptides,^[ [27] ^] and we therefore used the competitive inhibitor heparin to investigate whether internalization of FITC‐RIFSP‐2 was dependent on recognition by glycosaminoglycans on the cell surface.
# After forming electrostatic interactions with the plasma membrane, peptides principally penetrate into cells via macropinocytosis.^[ [28] ^] […]
# (A) Administration of FITC-labeled RIFSPs to WS1 cells and identification of the membrane […] of RIFSP-2 through confocal microscopy. (B)Time- and dose-dependent uptake of FITC-RIFSP-2 by WS1 cells detected through confocal microscopy and flow cytometry analysis. […] Conditioned medium from WS1 cells pretreated with RIFSP-2 increased MMP of irradiated HaCaT cells and vice versa, detected by JC-1(G and H) and Mito-Tracker Red CMXRos (I) staining (n = 4, ** P < 0.01).
# [3] = system: HaCaT cells; test: as above; type: cell-based
# Text: as §1
# Figure 2 Macropinocytosis‐mediated uptake of radiation‐induced frog skin peptide 2 (RIFSP‐2) protects skin cells against radiation‐induced injury. […] B) Time‐ and dose‐dependent uptake of FITC‐RIFSP‐2 by HaCaT cells detected through flow cytometry analysis. […] The effect of RIFSP‐2 on D) cell proliferation, E) cell cycle, and F,G) senescence, as detected by colony formation assay, propidium iodide (PI) staining and SA‐β‐Gal staining analysis, respectively. […] M) Effect of RIFSP‐2 on the homeostasis of actin filaments in irradiated skin cells, as detected by rhodamine phalloidin and G‐actin staining assays. […]
# [4] = system: skin tissues of mice; conditions: mouse, in vivo, sc
# [5] = system: STING signaling in HaCaT cells; test: STING downstream signals and inflammatory factors with LPC (18:1) (Western blotting, ELISA); type: cell-based, human
# Description: Since RIFSP‐2 directly restrained SCD1 and modulated neutral lipid droplets, we further investigated whether alteration of lipid profiles by RIFSP‐2 interfered with STING activation in response to irradiation. […] Furthermore, we investigated the influence of RIFSP‐2 on STING‐regulated inflammatory factors, including IFN‐β, TNF‐α, IL‐1, and IL‐6. […] Nevertheless, significant increase of IFN‐β production in acute stage and TNF‐α production in relative late stage (48 h) in macrophage cells were detected through both Western blotting and ELISA assays (Figure 4F,G).
# 2.6 Protein-protein interaction analysis
# The identified databases of specific binding proteins for RIFSP-2 and STING in irradiated skin cells were merged and the confidence score of interactions >0.7 were regarded as high confidence in alinement of STRING database. Finally, the visualization of this protein-protein interaction was realized through the Cytoscape software.
# 2.7 Assessment of cytokines by Elisa
# HaCaT and RAW264.7 cells were cultivated in 6 cm plates at a density of 5 × 10^5 cells/mL with 2 mL medium per well and treated with LPC (18:1) plus RIFSP-2 for 24 h. 6 or 48 h after irradiation, cytokine concentrations in the […] were measured by ELISA according to the instructions provided by the manufacturer (NEOBIOSCIENCE). The absorbance was detected using a BioTek reader (Synergy HTX, Winooski, USA) at 450 nm. […]
compound,measurement,setting,value
"CCN(CC)CCCC(C)Nc1ccnc2cc(Cl)ccc12 (stereo not drawn) [CQ, chloroquine]",influence on TBK1 degradation caused by RIFSP-2,"[1]; 10 nM chloroquine 4 hours, then 15 µM RIFSP-2 24 hours",little influence of lysosomes in TBK1 degradation
"C=C1[C@@H](C)[C@H]2[C@H](Cc3ccccc3)NC(=O)[C@]23[C@H](OC(C)=O)/C=C/[C@@](C)(O)C(=O)[C@@H](C)C/C=C/[C@H]3[C@@H]1O [CytD, cytochalasin D]",effect on WS1 cells,[2]; after CytD administration in the uptake study,swelled and subsequently died in 30 min
CC(C)C[C@@H](C=O)NC(=O)[C@H](CC(C)C)NC(=O)[C@H](CC(C)C)NC(=O)OCc1ccccc1 [MG132] (Cbz-Leu-Leu-Leu-aldehyde),influence on the reduction of TBK1 protein level by RIFSP-2,"[1]; 24 h after RIFSP-2 treatment (15 µM), MG132 10 µM pretreated 2 hours",abrogated the reduction of TBK1 protein level
LAAGGYDVDKNNSRLK [RIFSP‐2],uptake in HaCaT cells,[3],time‐ and dose‐dependent manner
same,time at which the FITC signal could be detected,[2],as soon as one hour after administration
same,adverse effects,[4],did not cause obvious adverse effects
same,histological examination of the skin tissues,[4],no significant differences
LPC (18:1),"accumulation of TGF-β, TNF-α, IL-1 and IL-6","[5]; keratinocytes but not macrophage cells, Western blotting",aggravated the accumulation
same,phosphorylation of STING and TBK1,"[5]; supplementation, dose-dependent manner (Figure S5C)",elevated the phosphorylation of both STING and its substrate TBK1
